In one experiment the target is T1, human recombinant HDAC1 (Homo sapiens, UniProt Q13547).
T1 construct: purchased Enzo Life Science BML-SE456
Description: HDAC1 enzyme activity inhibition assay (HDAC Fluorimetric Drug Discovery Kit). The note with it: 0.3 μg enzyme, 10 μM substrate, 30° C., 60 minutes. In kind it is biochemical. Put shortly:
(§1)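 5-fold compound dilutions + 0.3 μg enzyme + 10 μM Fluor de Lys-SIRT1 substrate, 60 min, 30° C; Developer II 30 min; fluorescence Ex 360/Em 460; IC50 by curve fit.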

Another experiment addresses T2, human recombinant HDAC6 (Homo sapiens, UniProt Q9UBN7).
T2 construct: purchased Calbiochem 382180
T2 sequence (Q9UBN7 1-1215): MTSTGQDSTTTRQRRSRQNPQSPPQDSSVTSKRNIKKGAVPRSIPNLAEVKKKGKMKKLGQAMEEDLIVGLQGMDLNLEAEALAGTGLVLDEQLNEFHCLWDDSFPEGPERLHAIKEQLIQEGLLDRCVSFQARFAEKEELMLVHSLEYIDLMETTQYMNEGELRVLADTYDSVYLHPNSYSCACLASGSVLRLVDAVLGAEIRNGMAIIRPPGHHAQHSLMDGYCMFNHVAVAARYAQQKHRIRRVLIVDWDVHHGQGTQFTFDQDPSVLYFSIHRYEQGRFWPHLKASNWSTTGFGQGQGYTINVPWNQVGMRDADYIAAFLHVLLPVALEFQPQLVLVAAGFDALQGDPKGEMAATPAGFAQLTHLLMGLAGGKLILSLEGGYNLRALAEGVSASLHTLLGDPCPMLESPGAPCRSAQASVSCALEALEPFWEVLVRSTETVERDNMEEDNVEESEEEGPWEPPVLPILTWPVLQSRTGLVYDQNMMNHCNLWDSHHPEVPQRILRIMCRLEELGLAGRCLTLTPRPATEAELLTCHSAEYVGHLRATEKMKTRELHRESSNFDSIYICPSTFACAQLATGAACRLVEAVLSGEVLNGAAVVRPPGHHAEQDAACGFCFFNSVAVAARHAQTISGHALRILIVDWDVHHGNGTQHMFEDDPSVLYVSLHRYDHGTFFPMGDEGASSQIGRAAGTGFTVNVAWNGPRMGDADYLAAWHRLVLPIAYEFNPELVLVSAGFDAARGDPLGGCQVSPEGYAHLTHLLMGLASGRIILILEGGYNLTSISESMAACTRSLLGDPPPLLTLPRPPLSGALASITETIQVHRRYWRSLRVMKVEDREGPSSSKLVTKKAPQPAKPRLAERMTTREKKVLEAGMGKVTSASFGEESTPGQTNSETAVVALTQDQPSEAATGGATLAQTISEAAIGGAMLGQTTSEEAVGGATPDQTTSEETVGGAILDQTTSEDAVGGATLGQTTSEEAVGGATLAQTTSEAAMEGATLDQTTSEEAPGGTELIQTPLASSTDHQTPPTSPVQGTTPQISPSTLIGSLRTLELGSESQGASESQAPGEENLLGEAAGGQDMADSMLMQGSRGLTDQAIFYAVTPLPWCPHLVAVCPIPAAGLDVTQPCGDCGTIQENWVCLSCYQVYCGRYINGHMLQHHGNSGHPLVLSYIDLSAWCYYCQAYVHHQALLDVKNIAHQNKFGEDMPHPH
Description: HDAC6 enzyme activity inhibition assay (HDAC Fluorimetric Drug Discovery Kit). It counts as biochemical. The conditions noted are these: for HDAC6 selectivity (fold): HDAC1 vs HDAC6; for IC50: same protocol as the HDAC1 enzyme activity test. In outline: as §1

Each structure is given as a SMILES string.

T1 sequence (Q13547 whole entry): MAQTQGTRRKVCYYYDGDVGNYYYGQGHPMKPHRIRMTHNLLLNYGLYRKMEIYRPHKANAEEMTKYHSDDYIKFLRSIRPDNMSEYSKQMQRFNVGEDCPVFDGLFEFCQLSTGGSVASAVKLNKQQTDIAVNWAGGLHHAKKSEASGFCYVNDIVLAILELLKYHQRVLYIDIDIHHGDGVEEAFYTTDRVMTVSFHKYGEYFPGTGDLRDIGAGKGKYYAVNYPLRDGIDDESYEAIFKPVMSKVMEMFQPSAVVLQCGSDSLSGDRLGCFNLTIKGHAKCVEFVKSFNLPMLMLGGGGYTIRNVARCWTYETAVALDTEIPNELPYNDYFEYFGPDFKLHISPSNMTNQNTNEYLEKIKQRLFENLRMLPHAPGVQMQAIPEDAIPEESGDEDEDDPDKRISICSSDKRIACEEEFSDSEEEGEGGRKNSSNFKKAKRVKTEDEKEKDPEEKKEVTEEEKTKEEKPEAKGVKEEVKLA

As usually defined, the IC50 is the concentration that inhibits the measured activity by half. For `CCS(=O)(=O)N(Cc1ccc(-c2nnc(C(F)F)o2)cn1)c1ccc(F)c(C)c1` [Compound 11461, N-((5-(5-(difluoromethyl)-1,3,4-oxadiazol-2-yl)pyridin-2-yl)methyl)-N-(4-fluoro-3-methylphenyl)ethanesulfonamide], the half-maximal inhibitory concentration (IC50) on human recombinant HDAC1 came out at 27.7 µM. For the same molecule, on human recombinant HDAC6, the “HDAC6 selectivity (fold)” value is on record as 2769 fold and the IC50 was found to be 10 nM.
The matching figures for `CC(C)N1CCC(S(=O)(=O)N(Cc2ccc(-c3nnc(C(F)F)o3)cc2)c2ccccc2)CC1` [Compound 11638, N-(4-(5-(difluoromethyl)-1,3,4-oxadiazol-2-yl)benzyl)-1-isopropyl-N-phenylpiperidine-4-sulfonamide]: 40.9 µM, 1778 fold and 23 nM.
As for `CCS(=O)(=O)N(Cc1ccc(-c2nnc(C(F)F)o2)cn1)c1ccc(C)c(Cl)c1` [Compound 11505, N-(3-chloro-4-methylphenyl)-N-((5-(5-(difluoromethyl)-1,3,4-oxadiazol-2-yl)pyridin-2-yl)methyl)ethanesulfonamide], the IC50 on human recombinant HDAC1 was 60.4 µM. At human recombinant HDAC6, the “HDAC6 selectivity (fold)” value came to 4646 fold and the IC50 is 13 nM.
For the molecule `CS(=O)(=O)N(Cc1ccc(-c2nnc(C(F)(F)F)o2)cc1F)c1ccccc1` [Compound 11169, N-(2-fluoro-4-(5-(trifluoromethyl)-1,3,4-oxadiazol-2-yl)benzyl)-N-phenylmethanesulfonamide], the IC50 at human recombinant HDAC1 worked out at 41.1 µM; at human recombinant HDAC6, 38 nM. For the same molecule, the “HDAC6 selectivity (fold)” value on human recombinant HDAC6 turned out to be 1081 fold.
The matching figures for `CS(=O)(=O)N(Cc1cnc(-c2nnc(C(F)(F)F)o2)cn1)c1ccccc1` [Compound 11573, N-phenyl-N-((5-(5-(trifluoromethyl)-1,3,4-oxadiazol-2-yl)pyrazin-2-yl)methyl)methanesulfonamide]: 2.54 µM, 2290 nM and 1 fold.
The like results for `O=S1(=O)CCC(S(=O)(=O)N(Cc2ccc(-c3nnc(C(F)F)o3)cn2)c2ccc(F)c(Cl)c2)CC1` [Compound 11497, N-(3-chloro-4-fluorophenyl)-N-((5-(5-(difluoromethyl)-1,3,4-oxadiazol-2-yl)pyridin-2-yl)methyl)tetrahydro-2H-thiopyran-4-sulfonamide 1,1-dioxide] were, in that order, 21.8 µM, 8 nM and 2727 fold.
`CCS(=O)(=O)N(Cc1ccc(-c2nnc(C(F)F)o2)cc1F)c1ccc2cnn(C)c2c1` [Compound 11521, N-(4-(5-(difluoromethyl)-1,3,4-oxadiazol-2-yl)-2-fluorobenzyl)-N-(1-methyl-1H-indazol-6-yl)ethanesulfonamide]: the IC50 at human recombinant HDAC1 came out at 43.3 µM. At human recombinant HDAC6, the “HDAC6 selectivity (fold)” value was determined as 2407 fold and the IC50 was 18 nM.
The like results for `O=S(=O)(CCCN1CCOCC1)N(Cc1ccc(-c2nnc(C(F)F)o2)cn1)c1ccc(F)c(Cl)c1` [Compound 11711, N-(3-chloro-4-fluorophenyl)-N-((5-(5-(difluoromethyl)-1,3,4-oxadiazol-2-yl)pyridin-2-yl)methyl)-3-morpholinopropane-1-sulfonamide] were, in that order, 61.3 µM, 874 fold and 70.1 nM.
Consider `O=S(=O)(CCN1CCCC1)N(Cc1ccc(-c2nnc(C(F)F)o2)cc1)c1ccccc1` [Compound 11645, N-(4-(5-(difluoromethyl)-1,3,4-oxadiazol-2-yl)benzyl)-N-phenyl-2-(pyrrolidin-1-yl)ethane-1-sulfonamide], for which the half-maximal inhibitory concentration (IC50) at human recombinant HDAC1 stood at 77.9 µM. For the same molecule, at human recombinant HDAC6, the “HDAC6 selectivity (fold)” value worked out at 1277 fold and the concentration for half-maximal inhibition (IC50) was found to be 61 nM.
The like results for `CS(=O)(=O)N(Cc1ccc(-c2nnc(C(F)(F)F)o2)cc1F)c1cccc(Cl)c1` [Compound 11190, N-(3-chlorophenyl)-N-(2-fluoro-4-(5-(trifluoromethyl)-1,3,4-oxadiazol-2-yl)benzyl)methanesulfonamide] were, in that order, 19.5 µM, 151 fold and 129 nM.
Consider `COc1cccc(N(Cc2ccc(-c3nnc(C(F)(F)F)o3)cc2F)S(C)(=O)=O)c1` [Compound 11179, N-(2-fluoro-4-(5-(trifluoromethyl)-1,3,4-oxadiazol-2-yl)benzyl)-N-(3-methoxyphenyl)methanesulfonamide], for which, at human recombinant HDAC1, the IC50 was 7.81 µM. Moreover, on human recombinant HDAC6, the “HDAC6 selectivity (fold)” value is recorded as 211 fold and the IC50 was 37 nM.
The like results for `CCS(=O)(=O)N(Cc1ccc(-c2nnc(C(F)F)o2)cn1)c1ccc(Cl)c(Cl)c1` [Compound 11507, N-(3,4-dichlorophenyl)-N-((5-(5-(difluoromethyl)-1,3,4-oxadiazol-2-yl)pyridin-2-yl)methyl)ethanesulfonamide] were, in that order, 51.4 µM, 3672 fold and 14 nM.
The like results for `CCS(=O)(=O)N(Cc1ccc(-c2nnc(C(F)F)o2)cn1)c1ccc(F)c(F)c1` [Compound 11462, N-((5-(5-(difluoromethyl)-1,3,4-oxadiazol-2-yl)pyridin-2-yl)methyl)-N-(3,4-difluorophenyl)ethanesulfonamide] were, in that order, 21.1 µM, 2635 fold and 8 nM.
The like results for `CS(=O)(=O)N(Cc1ccc(-c2nnc(C(F)(F)F)o2)cn1)c1ccccc1` [Compound 11171, N-phenyl-N-((5-(5-(trifluoromethyl)-1,3,4-oxadiazol-2-yl)pyridin-2-yl)methyl)methanesulfonamide] were, in that order, 26.6 µM, 1267 fold and 21 nM.
With `C[C@H]1CCCN1CCCS(=O)(=O)N(Cc1ccc(-c2nnc(C(F)F)o2)cc1)c1ccccc1` [Compound 11707, (S)—N-(4-(5-(difluoromethyl)-1,3,4-oxadiazol-2-yl)benzyl)-3-(2-methylpyrrolidin-1-yl)-N-phenylpropane-1-sulfonamide], the IC50 is 42.5 µM at human recombinant HDAC1 and 71.1 nM at human recombinant HDAC6. Also, the “HDAC6 selectivity (fold)” value on human recombinant HDAC6 was 597 fold.
The matching figures for `CS(=O)(=O)N(Cc1ccc(-c2nnc(C(F)(F)F)o2)cc1F)c1cccc(Br)c1` [Compound 11196, N-(3-bromophenyl)-N-(2-fluoro-4-(5-(trifluoromethyl)-1,3,4-oxadiazol-2-yl)benzyl)methanesulfonamide]: 28.7 µM, 65 nM and 441 fold.
`CCS(=O)(=O)N(Cc1ccc(-c2nnc(C(F)F)o2)cn1)c1ccc(C)c(F)c1` [Compound 11460, N-((5-(5-(difluoromethyl)-1,3,4-oxadiazol-2-yl)pyridin-2-yl)methyl)-N-(3-fluoro-4-methylphenyl)ethanesulfonamide]: the IC50 at human recombinant HDAC1 is 27.3 µM. For the same molecule, on human recombinant HDAC6, the “HDAC6 selectivity (fold)” value is 2727 fold and the IC50 came to 10 nM.
The matching figures for `O=S(=O)(CCCN1CCCC1)N(Cc1ccc(-c2nnc(C(F)F)o2)cc1)c1ccc(F)c(Cl)c1` [Compound 11722, N-(3-chloro-4-fluorophenyl)-N-(4-(5-(difluoromethyl)-1,3,4-oxadiazol-2-yl)benzyl)-3-(pyrrolidin-1-yl)propane-1-sulfonamide]: 41 µM, 1266 fold and 32.4 nM.

These data come from patent US10538498B2, “1,3,4-oxadiazole sulfonamide derivative compounds as histone deacetylase 6 inhibitor, and the pharmaceutical composition comprising the same” (Chong Kun Dang Pharmaceutical Corp., priority 2015, dated 2020).
